# Measurements: PMC7477874, “Targeting L-Proline Uptake as New Strategy for Anti-chagas Drug Development” (Frontiers in Chemistry, 2020)
# Several values for one entry are separate records, joined by “and”; a condition that tells them apart may be missing. Equal entries are not always repeated. Entries after “also recorded” stand apart in the source; their conditions may differ. Where two headings read alike, the source gives them in different places.
# How the values were obtained:
# [1] = system: T. cruzi epimastigotes (CL strain clone 14); settings: cited from earlier work
# [2] = system: T. cruzi epimastigotes (CL strain clone 14); test: Growth inhibition assay on T. cruzi epimastigotes; format: cell-based, Trypanosoma cruzi; settings: for Effect on parasite growth at the maximum concentration: 100 μM; for Times more active than T4C: T. cruzi epimastigotes, IC50 relative to T4C (890 μM)
# Procedure: T. cruzi CL strain clone 14 epimastigotes (Brener and […], [1965]) were maintained in the exponential growth phase by subculturing every 48 h in Liver Infusion Tryptose (LIT) medium supplemented with 10% FCS (Vitrocell, Campinas, São Paulo, Brazil) at 28 °C. T. cruzi epimastigotes in the exponential growth phase (5.0-6.0 x 10^7 cells mL^-1) were cultured in fresh LIT medium. The cells were treated with different concentrations of drugs or not treated (negative control). A combination of Rotenone (60 μM) and Antimycin (0.5 μM) was used as a positive control for inhibition as previously described. (Magdaleno et al., [2009]) The cells (2.5 x 10^6 mL^-1) were transferred to 96-well culture plates and incubated at 28 °C. Cell proliferation was quantified by reading the optical density (OD) at 620 nm for 8 days. The OD was converted to cell density values (cells per mL) using a linear regression equation previously obtained under the same conditions. The concentration of compounds that inhibited 50% of parasite proliferation (IC50) was determined during the exponential growth phase (4 days) by fitting the data to a typical sigmoidal dose-response curve using OriginPro8. The compounds were evaluated in quadruplicate in each experiment. The results shown here correspond to three independent experiments. As a cell growth inhibition control, growth curves in which […] were added to the culture medium were run in parallel for all experiments.
# L-proline transporter = test: L-Proline transport competition assay in T. cruzi epimastigotes; format: cell-based, Trypanosoma cruzi; settings: 3.1 mM analog; for Proline uptake inhibition (in words): 0.31 mM L-proline; for % of Proline inh.: 0.31 mM L-proline (Km), 30 s
# Procedure: Parasites in exponential growth phase were washed three times by centrifugation and resuspended in phosphate buffered saline (PBS), pH 7.4. Cells were counted in a Neubauer chamber, adjusted with the same buffer to a final density of 200 × 10^6 cells/mL and distributed in aliquots of 100 μL (containing 20 × 10^6 cells each). Transport assays were initiated by the addition to the assay tubes of 100 μL of the desired dilution of L-proline in PBS in the presence of […] of L-[3H] proline. Unless otherwise specified, V0 was measured at 28 °C for 30 s by incorporation of 0.75 and 3 mM L-proline traced with 1 μCi of U-^14C-L-Pro (Perkin Elmer). In all cases, proline transport was stopped by addition of […] of cold 50 mM proline in PBS (pH 7.4), and rapid washing by centrifugation at 10,000x g for 2 min. Background values in each experiment were measured by simultaneous addition of radiolabeled L-proline and stop solution as previously described (Silber et al., [2002]). For the competition assays, the transport experiments were performed as described above using the L-Pro concentration corresponding to the Km (0.31 mM). Those conditions were chosen considering an inhibitory activity by structurally related compounds should be competitive, and so, should be evidenced by a change in the […] at L-Pro concentrations close to the Km. Non-competitive inhibitors, if any, should diminish Vmax, which is measured at 10 x Km L-Pro (3.1 mM) (Silber et al., [2002]). […] The analogs were assayed on T. cruzi epimastigotes incubated with proline at the transporter Km concentration (0.31 mM), and the analogs were assayed at concentration 10-fold higher (3.1 mM). […] The oleyl derivate (3k), with an unsaturated fatty tail, has a similar IC50 on T. cruzi epimastigotes compared to the cetyl analog (3j) showing no inhibition in terms of proline uptake (Table 2).  Figure 4 Proline uptake assay. Pro control = Proline control, Pro comp = L-Proline as competitor. 3i-k and 3n = proline level incubated (*p < 0.05) with selected analogs. Pro control (0.31 mM L-proline, [^3H] proline, PBS). Pro Comp (3.1 mM L-proline, [^3H] proline, PBS). Compounds 3i-k and 3n (0.31 mM L-proline, 3.1 mM analog 3x, [^3H] proline, PBS). Stop solution: 50 mM L-proline added after 30 s.
# Vero cells = test: Cytotoxicity assay on Vero cells (MTT); format: cell-based, African green monkey; settings: for IC50: Chlorocebus sabaeus, Vero, 48 h, MTT
# Procedure: To evaluate the analogs toxicity, Vero cells previously plated on 96 multi-well plate in DMEM 2% FBS and incubated for 48 h at 37 °C in a humid atmosphere containing 5% CO2, were incubated with […] of DMEM 2% FBS supplemented with each analog for 48 h. The concentration (μM) was different with each analog:
# The viability of cells was measured by MTT dye (3-(4,5-Dimethylthiazol-2-yl)-2,5-diphenyltratazolium bromide, Sigma-Aldrich) colorimetric method. Benznidazole and DMSO were used as positive and negative controls, respectively. Data are expressed as means ± SD of the results of three independent assays of each condition.
# [3] = Solubility observed in the Vero cytotoxicity assay; format: physicochemical; settings: at 50 μM, Vero cytotoxicity assay medium
# Procedure: Vero cells are well established model to test cytotoxicity in vitro because it is an aneuploid and a continuous cell linage. […] Compound 3j was not soluble at 50 μM which made not possible to calculate its IC50.
# [4] = Trypanosoma cruzi, 96 h, epimastigotes CL14, IC50 at 4 days, means (SD) from three independent experiments, max. concentration 100 μM, read-out: T. cruzi IC50
# [5] = epimastigotes CL14, IC50 at 4 days, means (SD) from three independent experiments, max. concentration 100 μM, read-out: T. cruzi IC50
# [6] = Trypanosoma cruzi, epimastigotes, unit given as mM, read-out: T. cruzi epimastigotes IC50 (as restated in the discussion)
structure (smiles),measurement,setting,value
O=C(Cn1ccnc1[N+](=O)[O-])NCc1ccccc1 [Benznidazole],IC50,"[1]; epimastigotes, read-out: T. cruzi IC50",7 µM
"CCOC(=O)Cn1cc(CN2CCC[C@H]2C(=O)OC)nn1 [Compound 3a, Methyl ((1-(2-Ethoxy-2-Oxoethyl)-1H-1,2,3-Triazol-4-yl)Methyl)-L-Prolinate]",IC50,[2]; [4],> 0.1 mM
same,Effect on parasite growth at the maximum concentration,[2]; epimastigotes,did not affect the parasite growth; also recorded: inactive
"CCOC(=O)CCCCn1cc(CN2CCC[C@H]2C(=O)OC)nn1 [Compound 3b, Methyl ((1-(5-Ethoxy-5-Oxopentyl)-1H-1,2,3-Triazol-4-yl)Methyl)-L-Prolinate]",IC50,[2]; [4],> 0.1 mM
same,Effect on parasite growth at the maximum concentration,[2]; epimastigotes,did not affect the parasite growth; also recorded: inactive
"COC(=O)[C@@H]1CCCN1Cc1cn(Cc2ccccc2)nn1 [Compound 3c, Methyl ((1-Benzyl-1H-1,2,3-Triazol-4-yl)Methyl)-L-Prolinate]",IC50,[2]; [4],> 0.1 mM
same,Effect on parasite growth at the maximum concentration,[2]; epimastigotes,did not affect the parasite growth; also recorded: inactive
"COC(=O)[C@@H]1CCCN1Cc1cn(C2CCCCC2)nn1 [Compound 3d, Methyl ((1-Cyclohexyl-1H-1,2,3-Triazol-4-yl)Methyl)-L-Prolinate]",IC50,[2]; [4],> 0.1 mM
same,Effect on parasite growth at the maximum concentration,[2]; epimastigotes,did not affect the parasite growth; also recorded: inactive
"COC(=O)[C@@H]1CCCN1Cc1cn(CCCc2ccccc2)nn1 [Compound 3e, Methyl ((1-(3-Phenylpropyl)-1H-1,2,3-Triazol-4-yl)Methyl)-L-Prolinate]",IC50,[2]; [4],> 0.1 mM
same,Effect on parasite growth at the maximum concentration,[2]; epimastigotes,did not affect the parasite growth; also recorded: inactive
"COC(=O)[C@@H]1CCCN1Cc1cn(CC=Cc2ccccc2)nn1 [Compound 3f, Methyl ((1-Cinnamyl-1H-1,2,3-Triazol-4-yl)Methyl)-L-Prolinate]",IC50,[2]; [4],> 0.1 mM
same,Effect on parasite growth at the maximum concentration,[2]; epimastigotes,did not affect the parasite growth; also recorded: inactive
"COC(=O)[C@@H]1CCCN1Cc1cn(Cc2ccc3ccccc3c2)nn1 [Compound 3g, Methyl ((1-(Naphthalen-2-Ylmethyl)-1H-1,2,3-Triazol-4-yl)Methyl)-L-Prolinate]",IC50,[2]; [4],0.1 mM
same,melting point,,64 to 64.9 °C
"CCCCCCCCn1cc(CN2CCC[C@H]2C(=O)OC)nn1 [Compound 3h, Methyl ((1-Octyl-1H-1,2,3-Triazol-4-yl)Methyl)-L-Prolinate]",IC50,[2]; [4],> 0.1 mM
same,Effect on parasite growth at the maximum concentration,[2]; epimastigotes,did not affect the parasite growth; also recorded: inactive
"CCCCCCCCCCn1cc(CN2CCC[C@H]2C(=O)OC)nn1 [Compound 3i, Methyl ((1-Decyl-1H-1,2,3-Triazol-4-yl)Methyl)-L-Prolinate]",Proline uptake inhibition (in words),L-proline transporter,markedly reduction of the internalized proline
same,Selectivity index (IC50 Vero cells / IC50 T. cruzi epimastigotes),Vero cells,1.13
same,IC50,Vero cells,43 µM
same,Times more active than T4C,[2],23
same,IC50,[2]; [4],< 0.04 mM
same,IC50,[2]; [5],< 0.05 mM and 0.038 mM and 0.039 mM
"CCCCCCCCCCCCCCCCn1cc(CN2CCC[C@H]2C(=O)OC)nn1 [Compound 3j, Methyl ((1-Hexadecyl-1H-1,2,3-Triazol-4-yl)Methyl)-L-Prolinate]",% of Proline inh.,L-proline transporter,20% and 18^# %
same,Times more active than T4C,[2],36
same,IC50,[2]; [6],0.0245 mM
same,Solubility,[3],not soluble
same,melting point,,60 to 60.9 °C
"CCCCCCCC/C=C\CCCCCCCCn1cc(CN2CCC[C@H]2C(=O)OC)nn1 [Compound 3k, Methyl (Z)-((1-(Octadec-9-en-1-yl)-1H-1,2,3-Triazol-4-yl)Methyl)-L-Prolinate]",% of Proline inh.,L-proline transporter,0%
same,Proline uptake inhibition (in words),L-proline transporter,no inhibition
same,Selectivity index (IC50 Vero cells / IC50 T. cruzi epimastigotes),Vero cells,0.43
same,IC50,Vero cells,17 µM
same,Times more active than T4C,[2],22
same,IC50,[2]; [4],< 0.04 mM
same,IC50,[2]; [5],< 0.05 mM and 0.0351 mM
"CCCCCCCCCCCCCCCCCCCCn1cc(CN2CCC[C@H]2C(=O)OC)nn1 [Compound 3l, Methyl ((1-Icosyl-1H-1,2,3-Triazol-4-yl)Methyl)-L-Prolinate]",IC50,[2]; [4],0.1 mM
same,melting point,,72.7 to 73.7 °C
"COC(=O)[C@@H]1CCCN1Cc1cn(CC=C(C)CCC=C(C)C)nn1 [Compound 3m, Methyl ((1-(3,7-Dimethylocta-2,6-Dien-1-yl)-1H-1,2,3-Triazol-4-yl)Methyl)-L-Prolinate]",IC50,[2]; [4],> 0.1 mM
same,Effect on parasite growth at the maximum concentration,[2]; epimastigotes,did not affect the parasite growth; also recorded: inactive
"COC(=O)[C@@H]1CCCN1Cc1cn(C/C=C(\C)CC/C=C(\C)CCC=C(C)C)nn1 [Compound 3n, Methyl ((1-((2E,6E)-3,7,11-Trimethyldodeca-2,6,10-Trien-1-yl)-1H-1,2,3-Triazol-4-yl)Methyl)-L-Prolinate]",Proline uptake inhibition (in words),L-proline transporter,complete inhibition; also recorded: markedly reduction of the internalized proline
same,Selectivity index (IC50 Vero cells / IC50 T. cruzi epimastigotes),Vero cells,0.25
same,IC50,Vero cells,14 µM
same,Times more active than T4C,[2],18
same,IC50,[2]; [4],< 0.05 mM
same,IC50,[2]; [5],0.0483 ± 0.00129 mM
"COC(=O)[C@@H]1CCCN1Cc1cn(C/C=C(\C)CC/C=C(/C)CCC=C(C)C)nn1 [Compound 3o, Methyl ((1-((2E,6Z)-3,7,11-Trimethyldodeca-2,6,10-Trien-1-yl)-1H-1,2,3-Triazol-4-yl)Methyl)-L-Prolinate]",IC50,[2]; [4],0.0586 ± 0.00137 mM
same,IC50,[2]; [6],0.0596 mM
"COC(=O)[C@@H]1CCCN1Cc1cn(C/C=C(\C)CCCC(C)CCCC(C)CCCC(C)C)nn1 (stereo partly drawn) [Compound 3p, Methyl ((1-((E)-3,7,11,15-Tetramethylhexadec-2-en-1-yl)-1H-1,2,3-Triazol-4-yl)Methyl) -L-Prolinate]",IC50,[2]; [4],0.0483 mM
same,IC50,[2]; [5],0.0697 ± 0.00217 mM
"COC(=O)[C@@H]1CCCN1Cc1cn(CC=C(C)CCCC(C)CCCC(C)CCCC(C)C)nn1 (stereo partly drawn) [Compound 3q, Methyl ((1-(3,7,11,15-Tetramethylhexadec-2-en-1-yl)-1H-1,2,3-Triazol-4-yl)Methyl)-L-Prolinate]",IC50,[2]; [4],0.0483 ± 0.00581 mM
"O=C(O)[C@@H]1CSCN1 [Compound T4C, L-thiazolidine-4-carboxylic acid]",IC50,"[1]; ref Magdaleno et al., 2009, read-out: IC50 on T. cruzi epimastigotes",890 µM
